Results reported in the supplement of paper PMC11061612.

Columns and labels:
Assay in all cases: combination Emax (second highest fraction inhibited in the dose matrix, 72 h); higher = more inhibition; extreme values may be limits of the assay
[1] = system: KOPN-8 (B-Lymphoblastic Leukemia)
Summary of the method: (§1)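 Bliss excess equals the observed combination effect minus the expected value EA + EB − EA·EB, where EA and EB are the effects of each agent alone. Combination Emax is the second-highest inhibition within the matrix. Inhibition was scaled from CellTiter-Glo 2.0 luminescence, with 0 set by vehicle wells and 1 by blank wells, after 72 hours of two-drug dosing of cells plated in 1536-well plates.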

[2] = system: NCI-H1092 (Small Cell Lung Carcinoma)
Summary of the method: as §1

[3] = system: EJM (Plasma Cell Myeloma)
Summary of the method: as §1

[4] = system: Hey (Ovarian Carcinoma)
Summary of the method: as §1

Row | Compound | combination Emax [1] | combination Emax [2] | combination Emax [3] | combination Emax [4]
1 | CN(CCO)CC[C@H](CSc1ccccc1)Nc1ccc(S(=O)(=O)NC(=O)c2ccc(N3CCC([C@@H](O)c4ccccc4-c4ccc(Cl)cc4)CC3)cc2)cc1S(=O)(=O)C(F)(F)F [AZD4320] + Cc1cc2ncnn2cc1Nc1ncc2c(n1)n(C1CCOCC1)c(=O)n2C [AZD7648] (first compound max 1 µM, 7x7, partner max 10 µM) | 0.88 | 0.855 | 0.382 | 0.247
2 | C[C@@H](c1ccc2nccn2c1)n1nnc2ncc(-c3cnn(C)c3)nc21 [Savolitinib] + Cc1c2c(nn1C)CSCc1cc(n(C)n1)CSc1cc(c3ccccc3c1)OCCCc1c(C(=O)O)n(C)c3c-2c(Cl)ccc13 [AZD5991] (first compound max 1 µM, 7x7, partner max 1 µM) | 0.844 | 0.46 | 0.232 | 0.127
3 | CN(CCO)CC[C@H](CSc1ccccc1)Nc1ccc(S(=O)(=O)NC(=O)c2ccc(N3CCC([C@@H](O)c4ccccc4-c4ccc(Cl)cc4)CC3)cc2)cc1S(=O)(=O)C(F)(F)F [AZD4320] + C[C@@H](Nc1cc(F)cc(F)c1)c1cc(C(=O)N(C)C)cc2c(=O)cc(N3CCOCC3)oc12 [AZD8186] (first compound max 1 µM, 7x7, partner max 3 µM) | 1 | 0.938 | 0.511 | 0.373
4 | Cc1cc2ncnn2cc1Nc1ncc2c(n1)n(C1CCOCC1)c(=O)n2C [AZD7648] + CN(C)CCCOc1ccc(-c2ccc3ncc4c(c3c2)n(C2CCOCC2)c(=O)n4C)cn1 [AZD0156] (first compound max 10 µM, 7x7, partner max 1 µM) | 0.311 | 0.0818 | 0.225 | 0.32
5 | CN(CCO)CC[C@H](CSc1ccccc1)Nc1ccc(S(=O)(=O)NC(=O)c2ccc(N3CCC([C@@H](O)c4ccccc4-c4ccc(Cl)cc4)CC3)cc2)cc1S(=O)(=O)C(F)(F)F [AZD4320] + Cn1cnc2c(F)c(Nc3ccc(Br)cc3Cl)c(C(=O)NOCCO)cc21 [Selumetinib] (first compound max 1 µM, 7x7, partner max 3 µM) | 1 | 0.956 | 0.488 | 0.533
6 | Cc1cc2ncnn2cc1Nc1ncc2c(n1)n(C1CCOCC1)c(=O)n2C [AZD7648] + C=CCn1c(=O)c2cnc(Nc3ccc(N4CCN(C)CC4)cc3)nc2n1-c1cccc(C(C)(C)O)n1 [AZD1775] (first compound max 10 µM, partner max 1 µM) | 0.903 | 0.382 | 0.893 | 0.613
7 | Cc1cc2ncnn2cc1Nc1ncc2c(n1)n(C1CCOCC1)c(=O)n2C [AZD7648] + C[C@@H]1COCCN1C2=NC(=NC(=C2)C3(CC3)[S@](=N)(=O)C)C4=C5C=CNC5=NC=C4 [AZD6738] (first compound max 10 µM, 7x7, partner max 10 µM) | 0.891 | 0.302 | 0.893 | 0.689
8 | Cc1cc2ncnn2cc1Nc1ncc2c(n1)n(C1CCOCC1)c(=O)n2C [AZD7648] + CCN(CCO)CCCOc1ccc2c(Nc3cc(CC(=O)Nc4cccc(F)c4)[nH]n3)ncnc2c1 [AZD2811] (first compound max 10 µM, 7x7, partner max 1 µM) | 0.58 | 0.182 | 0.242 | 0.41
9 | CN(CCO)CC[C@H](CSc1ccccc1)Nc1ccc(S(=O)(=O)NC(=O)c2ccc(N3CCC([C@@H](O)c4ccccc4-c4ccc(Cl)cc4)CC3)cc2)cc1S(=O)(=O)C(F)(F)F [AZD4320] + CCN(CCO)CCCOc1ccc2c(Nc3cc(CC(=O)Nc4cccc(F)c4)[nH]n3)ncnc2c1 [AZD2811] (first compound max 1 µM, 7x7, partner max 1 µM) | 0.963 | 0.866 | 0.406 | 0.254
10 | COc1cc2c(cc1OCCCCCOc1cc3c(cc1OC)C(=O)N1C=C(C)C[C@H]1C=N3)N=C[C@@H]1CC(C)=CN1C2=O [SG3199] + O=C(c1cc(Cc2n[nH]c(=O)c3ccccc23)ccc1F)N1CCN(C(=O)C2CC2)CC1 [Olaparib] (first compound max 0.001 µM, 7x7, partner max 10 µM) | 0.719 | 0.152 | 0 | 0.196
11 | Cc1cc2ncnn2cc1Nc1ncc2c(n1)n(C1CCOCC1)c(=O)n2C [AZD7648] + O=C(c1cc(Cc2n[nH]c(=O)c3ccccc23)ccc1F)N1CCN(C(=O)C2CC2)CC1 [Olaparib] (first compound max 10 µM, 7x7, partner max 10 µM) | 0.68 | 0.111 | 0.2 | 0.266
12 | CN(CCO)CC[C@H](CSc1ccccc1)Nc1ccc(S(=O)(=O)NC(=O)c2ccc(N3CCC([C@@H](O)c4ccccc4-c4ccc(Cl)cc4)CC3)cc2)cc1S(=O)(=O)C(F)(F)F [AZD4320] + C1CN(CCC1(C(=O)N[C@@H](CCO)C2=CC=C(C=C2)Cl)N)C3=NC=NC4=C3C=CN4 [Capivasertib] (first compound max 1 µM, 7x7, partner max 3 µM) | 0.883 | 0.813 | 0.525 | 0.106
13 | Cc1c2c(nn1C)CSCc1cc(n(C)n1)CSc1cc(c3ccccc3c1)OCCCc1c(C(=O)O)n(C)c3c-2c(Cl)ccc13 [AZD5991] + Cn1cnc2c(F)c(Nc3ccc(Br)cc3Cl)c(C(=O)NOCCO)cc21 [Selumetinib] (first compound max 1 µM, 7x7, partner max 3 µM) | 1 | 0.608 | 0.983 | 0.563
14 | Cc1nc(Nc2ncc(C(=O)Nc3c(C)cccc3Cl)s2)cc(N2CCN(CCO)CC2)n1 [Dasatinib] + CC(=O)Nc1cccc(-n2c(=O)n(C3CC3)c(=O)c3c(Nc4ccc(I)cc4F)n(C)c(=O)c(C)c32)c1 [Trametinib] (first compound max 2 µM, 7x7, partner max 1 µM) | 0.545 | 0.125 | 0.153 | 0.858
15 | COc1cc2ncnc(Nc3ccc(F)c(Cl)c3)c2cc1OCCCN1CCOCC1 [Gefitinib] + CC(C)n1c(=O)n(C)c2cnc3cc(F)c(-c4ccc(OCCCN5CCCCC5)nc4)cc3c21 [AZD1390] (first compound max 10 µM, 7x7, partner max 0.3 µM) | 0.241 | 0.0586 | 0.133 | 0.0522
16 | C[C@@H](c1ccc2nccn2c1)n1nnc2ncc(-c3cnn(C)c3)nc21 [Savolitinib] + CC1(C)CCC(CN2CCN(c3ccc(C(=O)NS(=O)(=O)c4ccc(NCC5CCOCC5)c([N+](=O)[O-])c4)c(Oc4cnc5[nH]ccc5c4)c3)CC2)=C(c2ccc(Cl)cc2)C1 [Venetoclax] (first compound max 1 µM, 7x7, partner max 1 µM) | 0.743 | 0.248 | 0.232 | 0.0566
17 | CN(CCO)CC[C@H](CSc1ccccc1)Nc1ccc(S(=O)(=O)NC(=O)c2ccc(N3CCC([C@@H](O)c4ccccc4-c4ccc(Cl)cc4)CC3)cc2)cc1S(=O)(=O)C(F)(F)F [AZD4320] + C[C@@H]1COCCN1C2=NC(=NC(=C2)C3(CC3)[S@](=N)(=O)C)C4=C5C=CNC5=NC=C4 [AZD6738] (first compound max 1 µM, 7x7, partner max 10 µM) | 0.995 | 0.915 | 0.929 | 0.869
